Laboratory results taken from article PMC6290556, “1,4-Disubstituted Thiosemicarbazide Derivatives are Potent Inhibitors of Toxoplasma gondii Proliferation” (Molecules, 2014).
Values after ≈ are worked out from the molar mass of the structure shown.

Key:
[1] = system: T. gondii RH strain tachyzoites; experiment: [3H]uracil incorporation assay of T. gondii proliferation in L929 host cells; type: cell-based, Toxoplasma gondii; conditions: assay A [3H]uracil incorporation; for intensity of T. gondii proliferation: vs untreated blank
Method: In the next step of our studies, the prepared 1,4-disubstituted thiosemicarbazides (series 1–3) were used to assess the inhibition of T. gondii growth in vitro. For this purpose, intracellular parasites (tachyzoites) of RH strain were incubated with different concentrations of the thiosemicarbazides ranging from 1 to 100 µg/mL. Inhibition of the parasite growth was monitored by measuring the specific incorporation of [^3H]uracil in the parasite’s nucleic acids.
The tachyzoites of T. gondii strain RH – intraspecies type I (ATCC_ Number 50174™) were maintained through passages on female C57BL/6 (H-2^b) and BALB/c (H-2^d) mice with genetically determined high and low susceptibility (respectively) to T. gondii infection (10–12 weeks old). Tachyzoites washed out from the peritoneum cavity were once expanded in vitro on L929 cells.
L929, (2 × 10^4 cells/100 µL/well) were grown in complete medium (IMDM) on 96-well plates. After 24 h incubation, a medium was removed and then T. gondii RH tachyzoites, suspended in culture medium supplemented with 1.0, 5.0, 10.0, 50.0 and 100.0 μg/mL 1,4-disubstituted thiosemicarbazides (1g, 2b, 2m, 3d, 3l) and as a control-sulfadiazine, were added (2 × 10^5 tachyzoites/200 µL/well) to the cell monolayers. After subsequent 48 h incubation 1 µCi/well of [^3H] uracil (Moravek Biochemicals Inc., Brea, CA, USA) was applied to each microculture for further 18–20 h. The amount of the isotope incorporated into the parasite nucleic acid pool, corresponding to the parasite growth, was measured by liquid scintillation counting with 1450 Microbeta Plus Liquid Scintillation Counter (Wallac Oy, Turku, Finland).

T. gondii RH strain = experiment: quantitative real-time PCR (B1 gene) of T. gondii in infected L929 cells; type: cell-based, Toxoplasma gondii; conditions: assay B qRT-PCR, L929 host cells
Method: T. gondii genomic DNA was isolated from the tachyzoites of RH strain with Wizard® SV Genomic DNA Purification System (Promega, Madison, WI, USA) according to the manufacturer’s instruction. The DNA concentration and purity were measured using a NanoPhotometer (Implen, München, Germany), while the integrity of the extracted DNA was tested using an ethidium bromide-stained agarose gel. DNA was used for the detection and quantitationof T. gondii in analyzed samples and it was stored at −20 °C until use.
A quantitative real-time PCR (qRT-PCR) assay, targeting B1 gene was performed to detect and to quantitate T. gondii in analyzed samples (1g, 2b, 2m, 3d, 3l and sulphadiazine) according to the modified protocol of Wahab et al.. […] Amplification was carried out on a 7900HT real-time PCR system (Applied Biosystems, Carlsbad, CA, USA). The reaction mixtures (25 µL) consisted of 1x TaqMan PCR master mix supplemented with ROX (Applied Biosystems), 300 nM probe, 900 nM of each primer and 2 µL of template DNA. For quantification a standard curve was constructed using 10-fold serial dilutions of DNA extracted from a known number of T. gondii. The cycling parameters were: 50 °C for 2 min, initial activation at 95 °C for 10 min, and 45 two-step cycles of 95 °C for 15 s and 60 °C for 1 min. All samples were analyzed in triplicate.

L929 cells = experiment: MTT cell viability assay (ISO 10993-5); type: cell-based, mouse; conditions: for viability of L929 cells: 24 h, ± SD; for CC30 (concentration required for 30% proliferation inhibition in vitro): L929 cells
Method: (§1) Cell line L929 (ATTC® Catalog No. […] The MTT assay was used according to international standards: ISO 10993-5:2009(E), Biological evaluation of medical devices, Part 5: Tests for in vitro cytotoxicity. […] Then, 1 mg/mL MTT (50 μL/well) was added to each well and incubated at 37 °C, 10% CO2 for 2 h. Mitochondrial dehydrogenases of viable cells reduced the yellowish water-soluble MTT to water-insoluble formazan crystals, which were solubilized with dimethyl sulfoxide (DMSO). The cell culture medium was aspirated cautiously, after which 150 μL DMSO was added to each well and mixed thoroughly. Optical density (OD) was read on the ELISA reader (Multiskan EX, Labsystems, Vienna, VA, USA) at 550 nm. […] All experiments were performed in triplicate.

[2] = system: Gram-positive and Gram-negative bacterial strains; experiment: antibacterial assay (disc diffusion / agar dilution); type: cell-based; conditions: even at high concentrations
Excerpt: The following microorganisms were used in this study: Staphylococcus aureus (ATCC 25923, ATCC 6538, ATCC 29213, NCTC 4163), Staphylococcus epidermidis ATCC 12228, Bacillus subtilis ATCC 6633, Bacillus cereus ATCC 11778, Micrococcus luteus (ATCC 9341, ATCC 10240), Escherichia coli (ATCC 10538, ATCC 25922, NCTC 8196), […] NCTC 4635, Pseudomonas aeruginosa (ATCC 15442, ATCC 27853, NCTC 6749), and Bordetella bronchiseptica ATCC 4617. Initially, antibacterial activity of thiosemicarbazide derivatives was screened on the basis of growth inhibition zone (giz) utilizing the disc diffusion method, according to the Clinical and Laboratory Standards Institute guidelines. For compounds showing the inhibitory effect on the growth of tested bacteria, monitored as an appearance of giz, the minimal inhibitory concentrations (MICs) were determined using agar dilution method, according to the Clinical and Laboratory Standards Institute guidelines. The minimal inhibitory concentrations (MICs) were defined as the lowest concentration of the compound preventing growth of the tested microorganism. In both methods, recommended Mueller-Hinton II agar medium (Becton Dickinson, Heidelberg, Germany) was used. Solutions containing the tested agents were prepared in methanol or DMSO. Ciprofloxacin was used as control antimicrobial agent.

[3] = solubility under the anti-T. gondii protocol conditions; type: physicochemical; conditions: anti-T. gondii assay protocol, 1 to 100 µg/mL
Method: In the next step of our studies, the prepared 1,4-disubstituted thiosemicarbazides (series 1–3) were used to assess the inhibition of T. gondii growth in vitro. For this purpose, intracellular parasites (tachyzoites) of RH strain were incubated with different concentrations of the thiosemicarbazides ranging from 1 to 100 µg/mL. Inhibition of the parasite growth was monitored by measuring the specific incorporation of [^3H]uracil in the parasite’s nucleic acids. Unfortunately, among the 15 compounds tested, derivatives 1a–1e, 1k, 1l, 2f, 2i, 2j, and 3h were insoluble under the protocol conditions and, consequently, they were eliminated from further experiments. The percentages of the parasite growth inhibition in L929 cells by the remaining compounds 1g, 2b, 3d, 3l and the control drug-sulfadiazine as well as IC50 values are shown in Table 1.
A preliminary assumption was thus put forward that the presence of both the five-membered hetaryl moiety at N1 position and the aryl moiety at N4 position of thiosemicarbazide core are the key functionalities required for potent anti-T. gondii activity of thiosemicarbazide-based compounds, which may be directly linked with the electronic structure of the molecule. In order to verify the preliminary hypothesis, 4-ethyl-1-(thiophen-2-yl)carbonylthiosemicarbazide (1m), 4-cyclohexyl-1-(thiophen-2-yl)carbonylthiosemicarbazide (1n), and 4-ethyl-1-(2-methylfuran-3-yl)carbonylthio-semicarbazide (2m) were synthesized and their bioactivity was tested. Unfortunately, derivatives 1m and 1n were insoluble under the protocol conditions and, consequently, they were eliminated from further experiments. […] The assumption of the existence of the relationship between the anti-T. gondii activity of the studied thiosemicarbazides and their molecular structure was also confirmed based on DFT calculations. Figure 3 illustrates the electrostatic potential mapped on the density surface using the Gaussview program. Neutral fragments are characterized by the green color of the surface. The negative charge is represented by red, while the positive charge is marked in blue. If compound 1g is excluded from the consideration, the biological activity correlates well with the dipole moment of the molecule. In this series it seems that the activity depends on the bimodal partial negative charge developed on the carbonyl oxygen and another moiety on the same side of the molecule (a sulfur atom in 2b and 3d). Its low value in 3l and lack in 2m may be responsible for the lower activity. […] It contains, however, two partial negative charge centers as the series discussed above and an additional such center on the fluorine atom. Comparison of the biological activity of 1g and 2m seems to indicate the crucial role of the second negative charge density on the top of the molecule on a moiety other than the carbonyl oxygen. Another observation that comes from the analysis of the presented structures is that the biological activity is pronounced when the methyl group of the five-membered ring is directed away from the carbonyl group.

[4] = MTT cell viability assay (ISO 10993-5); type: cell-based, mouse; conditions: mouse, L929 mouse fibroblast cells, 24 h, ± SD
Method: as §1

[5] = system: T. gondii RH strain tachyzoites; experiment: [3H]uracil incorporation assay of T. gondii proliferation in L929 host cells; type: cell-based; conditions: Toxoplasma gondii, L929, read-out: IC50 (50% of T. gondii proliferation inhibition in vitro)

Which results are given for “4-ethyl-1-(2-methylfuran-3-yl)carbonylthio-semicarbazide [Compound 2m]”?
intensity of T. gondii proliferation ([1]; 1 µg/mL): 98.00 ± 19.53%; intensity of T. gondii proliferation ([1]; 5 µg/mL): 75.74 ± 14.62%; intensity of T. gondii proliferation ([1]; 10 µg/mL): 60.61 ± 9.56 %; intensity of T. gondii proliferation ([1]; 50 µg/mL): 66.49 ± 11.38 %; intensity of T. gondii proliferation ([1]; 100 µg/mL): 57.59 ± 15.02 %; IC50 (50% of T. gondii proliferation inhibition in vitro) [1]: 191.04 µg/mL; intensity of T. gondii proliferation (T. gondii RH strain; 50 µg/mL): 51.03 ± 7.02 %; intensity of T. gondii proliferation (T. gondii RH strain; 100 µg/mL): 53.03 ± 9.87 %; viability of L929 cells (L929 cells; 1 µg/mL): 104.05 ± 0.12%; viability of L929 cells (L929 cells; 5 µg/mL): 94.44 ± 2.62%; viability of L929 cells (L929 cells; 10 µg/mL): 94.05 ± 5.13%; viability of L929 cells (L929 cells; 50 µg/mL): 90.49 ± 2.99 %; viability of L929 cells (L929 cells; 100 µg/mL): 92.17 ± 2.31 %; viability of L929 cells (L929 cells; 500 µg/mL): 80.40 ± 2.74 %; CC30 (concentration required for 30% proliferation inhibition in vitro) (L929 cells): >500 µg/mL; growth-inhibiting effect on bacterial strains [2]: no growth-inhibiting effect

For Cc1ccccc1NC(=S)NNC(=O)c1cccs1 [Compound 1b, 4-(2-Methylphenyl)-1-(thiophen-2-yl)carbonylthiosemicarbazide], which melting point is on record?
The melting point was 155 to 157 °C.

For Cc1cccc(NC(=S)NNC(=O)c2cccs2)c1 [Compound 1e, 4-(3-Methylphenyl)-1-(thiophen-2-yl)carbonylthiosemicarbazide], which melting point is on record?
Its melting point is 188 to 190 °C.

Which “solubility under the protocol conditions” value [3] does the source give for O=C(NNC(=S)Nc1ccc([N+](=O)[O-])cc1)c1cccs1 [Compound 1k] here?
Its value is “insoluble”.

Which “solubility under the protocol conditions” value [3] does the source give for O=C(NNC(=S)Nc1ccc(F)cc1F)c1cccs1 [Compound 1l] here?
The value was “insoluble”.

With CCN=C(S)NNC(=O)c1cccs1 [Compound 1m, 4-ethyl-1-(thiophen-2-yl)carbonylthiosemicarbazide] as the compound, how does the “solubility under the protocol conditions” value [3] read?
Its value is “insoluble”.

Which “solubility under the protocol conditions” value [3] does the source give for O=C(NNC(=S)NC1CCCCC1)c1cccs1 [Compound 1n, 4-cyclohexyl-1-(thiophen-2-yl)carbonylthiosemicarbazide] here?
Its value is “insoluble”.

Which results are given for Cc1ccccc1NC(=S)NNC(=O)c1ccoc1C [Compound 2b]?
intensity of T. gondii proliferation ([1]; 1 µg/mL): 98.24 ± 23.83%; intensity of T. gondii proliferation ([1]; 5 µg/mL): 107.95 ± 24.88%; intensity of T. gondii proliferation ([1]; 10 µg/mL): 112.25 ± 22.91 %; intensity of T. gondii proliferation ([1]; 50 µg/mL): 58.78 ± 11.49 %; intensity of T. gondii proliferation ([1]; 100 µg/mL): 8.10 ± 2.78 %; intensity of T. gondii proliferation (T. gondii RH strain; 50 µg/mL): 41.37 ± 9.98 %; intensity of T. gondii proliferation (T. gondii RH strain; 100 µg/mL): 7.29 ± 1.56 %; viability at 24 h, 1 µg/mL ([4]; 1 µg/mL): 95.3 ± 9.52%; viability at 24 h, 5 µg/mL ([4]; 5 µg/mL): 94 ± 1.78%; viability at 24 h, 10 µg/mL ([4]; 10 µg/mL): 91.9 ± 5.21%; viability at 24 h, 50 µg/mL ([4]; 50 µg/mL): 84.5 ± 1.43%; viability at 24 h, 100 µg/mL ([4]; 100 µg/mL): 78.2 ± 1.61%; viability at 24 h, 500 µg/mL ([4]; 500 µg/mL): 30.3 ± 0.86%; CC30 (concentration required for 30% proliferation inhibition in vitro) (L929 cells): 187.51 µg/mL; growth-inhibiting effect on bacterial strains [2]: no growth-inhibiting effect; IC50 [5]: 59 µg/mL (≈ 204 µM)

With Cc1ccc(NC(=S)NNC(=O)c2ccoc2C)cc1 [Compound 2f] as the compound, how does the “solubility under the protocol conditions” value [3] read?
The value was “insoluble”.

Which “solubility under the protocol conditions” value [3] does the source give for Cc1occc1C(=O)NNC(=S)Nc1ccc(Br)cc1 [Compound 2i] here?
Its value is “insoluble”.

For Cc1occc1C(=O)NNC(=S)Nc1ccc(I)cc1 [Compound 2j], which “solubility under the protocol conditions” value [3] is on record?
The value was “insoluble”.

With Cc1nnsc1C(=O)NNC(=S)Nc1ccc(Cl)cc1 [Compound 3h] as the compound, how does the “solubility under the protocol conditions” value [3] read?
The value was “insoluble”.
